Results from patent US20260262643A1, “HERBICIDAL BENZOXAZINES” (FMC CORPORATION, priority 2022, published 2026).

Legend:
[1] = system: blackgrass; assay: Test A preemergence; assay type: in vivo, Alopecurus myosuroides
How it was run: (§1)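 Plants were grown in loam and sand and treated preemergence or postemergence (one- to two-leaf stage, 2–10 cm) with compound in solvent plus surfactant. Response was scored against untreated controls after 10 greenhouse days, where 0 means no effect and 100 complete control.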

[2] = system: corn; assay: Test A preemergence; assay type: in vivo, Zea mays
How it was run: as §1

[3] = system: foxtail, giant; assay: Test A preemergence; assay type: in vivo, Setaria faberi
How it was run: as §1

[4] = system: goosegrass; assay: Test A preemergence; assay type: in vivo, Eleusine indica
How it was run: as §1

[5] = system: kochia; assay: Test A preemergence; assay type: in vivo, Bassia scoparia
How it was run: as §1

[6] = system: oat, wild; assay: Test A preemergence; assay type: in vivo, Avena fatua
How it was run: as §1

[7] = system: pigweed, palmer; assay: Test A preemergence; assay type: in vivo, Amaranthus palmeri
How it was run: as §1

[8] = system: ragweed; assay: Test A preemergence; assay type: in vivo, Ambrosia artemisiifolia
How it was run: as §1

[9] = system: ryegrass, Italian; assay: Test A preemergence; assay type: in vivo, Lolium multiflorum
How it was run: as §1

[10] = system: soybean; assay: Test A preemergence; assay type: in vivo, Glycine max
How it was run: as §1

[11] = system: wheat; assay: Test A preemergence; assay type: in vivo, Triticum aestivum
How it was run: as §1

[12] = system: blackgrass; assay: Test A postemergence; assay type: in vivo, Alopecurus myosuroides
How it was run: as §1

[13] = system: corn; assay: Test A postemergence; assay type: in vivo, Zea mays
How it was run: as §1

[14] = system: foxtail, giant; assay: Test A postemergence; assay type: in vivo, Setaria faberi
How it was run: as §1

[15] = system: goosegrass; assay: Test A postemergence; assay type: in vivo, Eleusine indica
How it was run: as §1

[16] = system: kochia; assay: Test A postemergence; assay type: in vivo, Bassia scoparia
How it was run: as §1

[17] = system: oat, wild; assay: Test A postemergence; assay type: in vivo, Avena fatua
How it was run: as §1

[18] = system: pigweed, palmer; assay: Test A postemergence; assay type: in vivo, Amaranthus palmeri
How it was run: as §1

[19] = system: ragweed; assay: Test A postemergence; assay type: in vivo, Ambrosia artemisiifolia
How it was run: as §1

[20] = system: ryegrass, Italian; assay: Test A postemergence; assay type: in vivo, Lolium multiflorum
How it was run: as §1

[21] = system: soybean; assay: Test A postemergence; assay type: in vivo, Glycine max
How it was run: as §1

[22] = system: wheat; assay: Test A postemergence; assay type: in vivo, Triticum aestivum
How it was run: as §1

[23] = system: galium; assay: Test A postemergence; assay type: in vivo, Galium aparine
How it was run: as §1

[24] = system: barnyardgrass; assay: Test B flooded paddy test; assay type: in vivo, Echinochloa crus-galli; settings: 250 g ai/ha, Flood, 13 days, 0 to 100 scale (0 no effect, 100 complete control)
How it was run: (§2)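 Application into standing water (3 cm above soil) at the two-leaf stage; flood depth held constant. Evaluation: day 13, visual comparison with controls, 0 = no injury, 100 = complete control.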

[25] = system: ducksalad; assay: Test B flooded paddy test; assay type: in vivo, Heteranthera limosa; settings: 250 g ai/ha, Flood, 13 days, 0 to 100 scale (0 no effect, 100 complete control)
How it was run: as §2

[26] = system: rice; assay: Test B flooded paddy test; assay type: in vivo, Oryza sativa; settings: 250 g ai/ha, Flood, 13 days, 0 to 100 scale (0 no effect, 100 complete control)
How it was run: as §2

[27] = system: sedge, umbrella; assay: Test B flooded paddy test; assay type: in vivo, Cyperus difformis; settings: 250 g ai/ha, Flood, 13 days, 0 to 100 scale (0 no effect, 100 complete control)
How it was run: as §2

[28] = 125 g ai/ha, visual injury after 10 days, 0 to 100 scale, 0 is no effect, 100 is complete control
[29] = 500 g ai/ha, 0 to 100 scale (0 no effect, 100 complete control), 10 days
[30] = 125 g ai/ha, postemergence, 10 days, visual injury, 0 to 100 scale (0 no effect, 100 complete control)
[31] = 500 g ai/ha, Postemergence, 0 to 100 scale

SMILES: C[C@H]1CN(C(=O)c2cccc(-n3cncn3)c2)c2cccc(C#N)c2O1 [Compound 46]
- Plant response rating, Blackgrass [1, 28]: 60
- Plant response rating, Blackgrass [1, 29]: 90
- Plant response rating, Corn [2, 28]: 0
- Plant response rating, Corn [2, 29]: 0
- Plant response rating, Foxtail, Giant [3, 28]: 60
- Plant response rating, Foxtail, Giant [3, 29]: 100
- Plant response rating, Goosegrass [4, 28]: 60
- Plant response rating, Goosegrass [4, 29]: 100
- Plant response rating, Kochia [5, 29]: 40
- Plant response rating, Oat, Wild [6, 28]: 0
- Plant response rating, Oat, Wild [6, 29]: 70
- Plant response rating, Pigweed, Palmer [7, 28]: 40
- Plant response rating, Pigweed, Palmer [7, 29]: 90
- Plant response rating, Ragweed [8, 28]: 0
- Plant response rating, Ragweed [8, 29]: 0
- Plant response rating, Ryegrass, Italian [9, 28]: 60
- Plant response rating, Ryegrass, Italian [9, 29]: 80
- Plant response rating, Soybean [10, 28]: 20
- Plant response rating, Soybean [10, 29]: 60
- Plant response rating, Wheat [11, 28]: 0
- Plant response rating, Wheat [11, 29]: 30
- Plant response rating, Blackgrass [12, 30]: 30
- Plant response rating, Blackgrass [12, 31]: 70
- Plant response rating, Corn [13, 30]: 10
- Plant response rating, Corn [13, 31]: 30
- Plant response rating, Foxtail, Giant [14, 30]: 20
- Plant response rating, Foxtail, Giant [14, 31]: 90
- Plant response rating, Goosegrass [15, 30]: 10
- Plant response rating, Goosegrass [15, 31]: 60
- Plant response rating, Kochia [16, 30]: 20
- Plant response rating, Kochia [16, 31]: 80
- Plant response rating, Oat, Wild [17, 30]: 0
- Plant response rating, Oat, Wild [17, 31]: 40
- Plant response rating, Pigweed, Palmer [18, 30]: 20
- Plant response rating, Pigweed, Palmer [18, 31]: 50
- Plant response rating, Ragweed [19, 30]: 0
- Plant response rating, Ragweed [19, 31]: 0
- Plant response rating, Ryegrass, Italian [20, 30]: 40
- Plant response rating, Ryegrass, Italian [20, 31]: 80
- Plant response rating, Soybean [21, 30]: 90
- Plant response rating, Soybean [21, 31]: 100
- Plant response rating, Wheat [22, 30]: 10
- Plant response rating, Wheat [22, 31]: 50
- Plant response rating, Galium [23, 30]: 60
- Plant response rating, Galium [23, 31]: 100
- Plant response rating, Barnyardgrass [24]: 0
- Plant response rating, Ducksalad [25]: 0
- Plant response rating, Rice [26]: 0
- Plant response rating, Sedge, Umbrella [27]: 0

SMILES: C[C@H]1CN(C(=O)c2cccc(-n3cncn3)c2)c2cccc(C(F)(F)F)c2O1 [Compound 47]
- Plant response rating, Blackgrass [1, 28]: 70
- Plant response rating, Blackgrass [1, 29]: 90
- Plant response rating, Corn [2, 28]: 0
- Plant response rating, Corn [2, 29]: 0
- Plant response rating, Foxtail, Giant [3, 28]: 60
- Plant response rating, Foxtail, Giant [3, 29]: 90
- Plant response rating, Goosegrass [4, 28]: 80
- Plant response rating, Goosegrass [4, 29]: 100
- Plant response rating, Kochia [5, 28]: 0
- Plant response rating, Kochia [5, 29]: 50
- Plant response rating, Oat, Wild [6, 28]: 10
- Plant response rating, Oat, Wild [6, 29]: 30
- Plant response rating, Pigweed, Palmer [7, 28]: 60
- Plant response rating, Pigweed, Palmer [7, 29]: 90
- Plant response rating, Ragweed [8, 28]: 0
- Plant response rating, Ragweed [8, 29]: 0
- Plant response rating, Ryegrass, Italian [9, 28]: 80
- Plant response rating, Ryegrass, Italian [9, 29]: 90
- Plant response rating, Soybean [10, 28]: 0
- Plant response rating, Soybean [10, 29]: 40
- Plant response rating, Wheat [11, 28]: 0
- Plant response rating, Wheat [11, 29]: 20
- Plant response rating, Blackgrass [12, 30]: 10
- Plant response rating, Blackgrass [12, 31]: 60
- Plant response rating, Corn [13, 30]: 30
- Plant response rating, Corn [13, 31]: 60
- Plant response rating, Foxtail, Giant [14, 30]: 30
- Plant response rating, Foxtail, Giant [14, 31]: 90
- Plant response rating, Goosegrass [15, 30]: 0
- Plant response rating, Goosegrass [15, 31]: 20
- Plant response rating, Kochia [16, 30]: 50
- Plant response rating, Kochia [16, 31]: 90
- Plant response rating, Oat, Wild [17, 30]: 10
- Plant response rating, Oat, Wild [17, 31]: 30
- Plant response rating, Pigweed, Palmer [18, 30]: 70
- Plant response rating, Pigweed, Palmer [18, 31]: 90
- Plant response rating, Ragweed [19, 30]: 0
- Plant response rating, Ragweed [19, 31]: 0
- Plant response rating, Ryegrass, Italian [20, 30]: 30
- Plant response rating, Ryegrass, Italian [20, 31]: 90
- Plant response rating, Soybean [21, 30]: 80
- Plant response rating, Soybean [21, 31]: 100
- Plant response rating, Wheat [22, 30]: 20
- Plant response rating, Wheat [22, 31]: 40
- Plant response rating, Galium [23, 30]: 60
- Plant response rating, Galium [23, 31]: 90
- Plant response rating, Barnyardgrass [24]: 0
- Plant response rating, Ducksalad [25]: 0
- Plant response rating, Rice [26]: 0
- Plant response rating, Sedge, Umbrella [27]: 0

SMILES: C[C@H]1CN(C(=O)c2cccc(-n3cncn3)c2)c2cccc(OC(F)(F)F)c2O1 [Compound 48]
- Plant response rating, Blackgrass [1, 28]: 20
- Plant response rating, Blackgrass [1, 29]: 80
- Plant response rating, Corn [2, 28]: 0
- Plant response rating, Corn [2, 29]: 30
- Plant response rating, Foxtail, Giant [3, 28]: 20
- Plant response rating, Foxtail, Giant [3, 29]: 90
- Plant response rating, Goosegrass [4, 28]: 40
- Plant response rating, Goosegrass [4, 29]: 80
- Plant response rating, Kochia [5, 28]: 0
- Plant response rating, Kochia [5, 29]: 30
- Plant response rating, Oat, Wild [6, 28]: 20
- Plant response rating, Oat, Wild [6, 29]: 30
- Plant response rating, Pigweed, Palmer [7, 28]: 30
- Plant response rating, Pigweed, Palmer [7, 29]: 90
- Plant response rating, Ragweed [8, 28]: 0
- Plant response rating, Ragweed [8, 29]: 0
- Plant response rating, Ryegrass, Italian [9, 28]: 70
- Plant response rating, Ryegrass, Italian [9, 29]: 100
- Plant response rating, Soybean [10, 28]: 0
- Plant response rating, Soybean [10, 29]: 0
- Plant response rating, Wheat [11, 28]: 0
- Plant response rating, Wheat [11, 29]: 0
- Plant response rating, Blackgrass [12, 30]: 0
- Plant response rating, Blackgrass [12, 31]: 30
- Plant response rating, Corn [13, 30]: 10
- Plant response rating, Corn [13, 31]: 60
- Plant response rating, Foxtail, Giant [14, 30]: 20
- Plant response rating, Foxtail, Giant [14, 31]: 70
- Plant response rating, Goosegrass [15, 30]: 0
- Plant response rating, Goosegrass [15, 31]: 40
- Plant response rating, Kochia [16, 30]: 20
- Plant response rating, Kochia [16, 31]: 50
- Plant response rating, Oat, Wild [17, 30]: 10
- Plant response rating, Oat, Wild [17, 31]: 30
- Plant response rating, Pigweed, Palmer [18, 30]: 30
- Plant response rating, Pigweed, Palmer [18, 31]: 70
- Plant response rating, Ragweed [19, 30]: 0
- Plant response rating, Ragweed [19, 31]: 20
- Plant response rating, Ryegrass, Italian [20, 30]: 20
- Plant response rating, Ryegrass, Italian [20, 31]: 40
- Plant response rating, Soybean [21, 30]: 70
- Plant response rating, Soybean [21, 31]: 100
- Plant response rating, Wheat [22, 30]: 10
- Plant response rating, Wheat [22, 31]: 30
- Plant response rating, Galium [23, 30]: 40
- Plant response rating, Galium [23, 31]: 60
- Plant response rating, Barnyardgrass [24]: 0
- Plant response rating, Ducksalad [25]: 0
- Plant response rating, Rice [26]: 0
- Plant response rating, Sedge, Umbrella [27]: 0
